Like-named read-outs stand apart in the source and are kept apart here.

Here are results for 38 molecules from paper PMC3221503, “Study on Cytochrome P-450 Dependent Retinoic Acid Metabolism and its Inhibitors as Potential Agents for Cancer Therapy” (Scientia Pharmaceutica, 2011).

The subject of series [1] is cytochrome P-450 dependent retinoic acid metabolism. Kind of series: RA metabolism assay: in vitro inhibition of retinoic acid metabolism by P-450 inhibitors. As to conditions: male, rat.
Protocol: (§1) Controls (10 μl, DMSO) were also carried with each experiment.
(§2) The assay followed a previously described one [17]: The column was a 10 μm C18 μ Bondapak (3.9× 300mm, Millipore) and the mobile phase was acetonitrile: water: formic acid (75:25:0.05v/v) containing 10 mM ammonium acetate. Flow rate was 1.2 ml.Min^−1. Eluted ^3H compounds were detected on line by a model 970 detector (Reeve) using Hisafe III scintillation fluid. The retention time of ^3H-RA was 10 min and oxidative metabolites of ^3H-RA were detected, eluting samples over 3 to 7 min. Metabolism was determined from the % conversion of RA into its total metabolites based on AUC values.
(§3) Three separate experiments (each with triplicate tubes) were carried out.
(§4) The IC50 for ketoconazole and liarozole were determined for comparative purposes.
(§5) The IC50 was calculated from a plot of percentage inhibition versus log inhibitor concentration using Cricket Graph 1.3.
The subject of series [2] is cytochrome P-450 dependent retinoic acid metabolism in male rat hepatic microsomes. Described as above. As to conditions: inhibitor 100 μM, RA 3 μM, male rat hepatic microsomes 0.12 mg/ml, 37°C, 15 min, mean of three determinations, (-) denotes stimulation of RA metabolism.
Protocol: as §1, §2, §3, §4, §5
Series [3] has the same test system. As to conditions: pH 7.4.
Protocol: as §1, §2, §3, §4, §5
On the set-up of series [4]: method as in PMID 1328295. The following applies: cleared from the plasma; cited from earlier work.
In another series the test system is mouse embryo. Also noted: method as in PMID 1965892. As to conditions: cited from earlier work.
Where [5] appears, read: rat liver microsomes, pH 7.4, probe 3H-retinoic acid (RA), 3 μM.

As for `CN/C(=N/CCSCc1nc[nH]c1C)NC#N` [Cimetidine], in series [1] (setting [5]), the inhibition at 15 min, 100 μM is 1%.

For `c1ccc(Cn2ccnc2)cc1` [1-Benzylimidazole], the “% Inhibition of retinoic acid metabolism” value in series [2] turned out to be 7.6%. Turning to `O=C(O)c1cc(-c2ccc(F)cc2F)ccc1O` [Diflunisal], the inhibition at 15 min, 100 μM in series [1] (setting [5]) was 2%. For the molecule `Clc1ccccc1C(c1ccccc1)(c1ccccc1)n1ccnc1` [Clotrimazole], the inhibition at 15 min, 100 μM in series [1] (setting [5]) was 34.4%. `O=c1cc(O)c2ccccc2o1` [4-Hydroxycoumarin]: the “% Inhibition of retinoic acid metabolism” value in series [2] amounted to 38.50%. Regarding `Clc1cccc(-c2cnco2)c1` [5-(3-Chlorophenyl)-1,3-oxazole], the inhibition at 15 min, 100 μM in series [1] (setting [5]) came to 8.6%. On to `CCC1(c2ccccc2)C(=O)NC(=O)NC1=O` [Phenobarbitone], for which the “% Inhibition of retinoic acid metabolism” value in series [3] is given as 0.0%. On to `CN(C)CCCN1c2ccccc2Sc2ccc(Cl)cc21` [Chlorpromazine], for which the “% Inhibition of retinoic acid metabolism” value in series [2] is 85.0%; in series [2] (listed as chlorpromazine), over 50%. The same molecule came in with an IC50 at 15 min in series [1] (setting [5]) of 16.9 ± 1.7 µM.

Consider `Clc1ccc(COC(Cn2ccnc2)c2ccc(Cl)cc2Cl)cc1` (stereo not drawn) [Econazole], for which, in series [1] (setting [5]), the inhibition at 15 min, 100 μM stood at 14%.

Take `NCCc1c[nH]cn1` [Histamine]: the inhibition at 15 min, 100 μM in series [1] (setting [5]) was determined as 0%.

Consider `COc1ccc2ccc(=O)oc2c1` [7-Methoxycoumarin], for which, in series [1] (setting [5]), the inhibition at 15 min, 100 μM is 11.7%. For the molecule `COC1=CC(=O)C[C@@H](C)[C@]12Oc1c(Cl)c(OC)cc(OC)c1C2=O` [Griseofulvin], in series [1] (setting [5]), the inhibition at 15 min, 100 μM stood at 0%.

Regarding `CCC1(c2ccc([N+](=O)[O-])cc2)CCC(=O)NC1=O` (stereo not drawn) [Nitroglutethimide], the “% Inhibition of retinoic acid metabolism” value in series [2] is recorded as −1.4%. Take `Cc1ccc(-c2ncns2)cc1` [5-(4-Methylphenyl)-1,2,4-thiadiazole]: the inhibition at 15 min, 100 μM in series [1] (setting [5]) was 4.8%. Take `CCCC(C(=O)OCCN(CC)CC)(c1ccccc1)c1ccccc1` [Proadifen]: the “% Inhibition of retinoic acid metabolism” value is 86.0% in series [2] and over 50% in series [2] (listed as proadifen). Besides, half-maximal inhibition in series [1] (setting [5]) (IC50 at 15 min) required 1 ± 0.14 µM. With `O=c1ccc2ccccc2o1` [Coumarin], in series [1] (setting [5]), the inhibition at 15 min, 100 μM was 37%. For the molecule `COc1ccc2c(c1)c(CC(=O)O)c(C)n2C(=O)c1ccc(Cl)cc1` [Indomethacin], the inhibition at 15 min, 100 μM in series [1] (setting [5]) amounted to 0%. As for `O=C(Cn1ccnc1)c1ccc2ccccc2c1` [Nafimidone], the inhibition at 15 min, 100 μM in series [1] (setting [5]) is 12%. For the molecule `CC(=O)Oc1ccccc1C(=O)O` [Aspirin], the inhibition at 15 min, 100 μM in series [1] (setting [5]) was 5%. `Cc1nc2cc(-c3ccccc3)ccc2o1` [2-Methyl-5-phenyl-1,3-benzoxazole]: the inhibition at 15 min, 100 μM in series [1] (setting [5]) is 18%. Take `Brc1ccc(-c2csnn2)cc1` [4-(4-Bromophenyl)-1,2,3-thiadiazole]: in series [1] (setting [5]), the inhibition at 15 min, 100 μM worked out at 11.6%. Regarding `CN1C(=O)CC(c2ccccc2)C1=O` (stereo not drawn) [Phensuximide], in series [1] (setting [5]), the inhibition at 15 min, 100 μM came to 3.5%.

As for `C[C@@H]1[C@H](O)[C@@H](C)/C=C/C=C/CC/C=C/C=C/C=C/C=C/C(O[C@H]2O[C@H](C)[C@@H](O)[C@H](N)[C@@H]2O)CC2O[C@](O)(CC(O)C(O)CCC(O)CC(O)CC(O)CC(=O)O[C@H]1C)CC(O)C2C(=O)O` (stereo partly drawn) [Nystatin], the “% Inhibition of retinoic acid metabolism” value in series [2] came out at 5.44%. In the case of `c1ccc(-c2ccc(C(c3ccccc3)n3ccnc3)cc2)cc1` (stereo not drawn) [Bifonazole], the inhibition at 15 min, 100 μM in series [1] (setting [5]) was determined as 47.5%. Take `CC(=O)C[C@@H](c1ccccc1)c1c(O)c2ccccc2oc1=O` [S-Warfarin]: the “% Inhibition of retinoic acid metabolism” value in series [2] stood at 6.5%. Consider `CC(=O)N1CCN(c2ccc(OCC3COC(Cn4ccnc4)(c4ccc(Cl)cc4Cl)O3)cc2)CC1` (stereo not drawn) [Ketoconazole], for which, in series [1] (setting [5]), the IC50 at 15 min was 13.5 ± 1.3 µM and the inhibition at 15 min, 100 μM came out at 87.5%. Regarding `O=C(O)/C=C\C(=O)O.S=C(NC1CCCCC1)N1CCC(c2cnc[nH]2)CC1` [Thiopermide maleate], the “% Inhibition of retinoic acid metabolism” value in series [2] is 3.4%. Turning to `CC1=C(/C=C/C(C)=C/C=C/C(C)=C/C(=O)O)C(C)(C)CCC1` [RA, All-trans-retinoic acid], the “plasma t ½” value in series [4] is recorded as under 1 h. In addition, the “developmental / teratogenic effect” value with mouse embryo (dose of 1 mg/Kg RA, mice) is “no teratogenic effects”; in the series with mouse embryo (dose of 10 mg/Kg body weight of RA, mouse), “developmental abnormalities”. The “increase in the level of RA in mouse embryo limb buds” value in the series with mouse embryo (dose of 10 mg/Kg body weight of RA) was “approximately 50 fold”. As to `CCC1(c2ccc(N)cc2)CCC(=O)NC1=O` (stereo not drawn) [Aminoglutethimide], in series [1] (setting [5]), the inhibition at 15 min, 100 μM stood at 30.8%.

`Clc1cccc(C(c2ccc3[nH]cnc3c2)n2ccnc2)c1` (stereo not drawn) [Liarozole]: in series [1] (setting [5]), the IC50 at 15 min was found to be 4.2 ± 0.1 µM and the inhibition at 15 min, 100 μM amounted to 89%. As to `c1csc(-c2nnco2)c1` [2-(Thiophen-2-yl)-1,3,4-oxadiazole], the inhibition at 15 min, 100 μM in series [1] (setting [5]) came out at 0%. On to `c1ccc(CCNCc2ccccc2)cc1` [N-Benzyl-2-phenylethanamine], for which the “% Inhibition of retinoic acid metabolism” value is listed as 85.0% in series [2] and over 50% in series [2] (listed as N-benzyl-2-phenylethanamine). In addition, the half-maximal inhibitory concentration (IC50) at 15 min in series [1] (pH 7.4) worked out at 17.1 ± 3.2 µM. With `Clc1ccc(COC(Cn2ccnc2)c2ccc(Cl)cc2Cl)c(Cl)c1` (stereo not drawn) [Miconazole], the inhibition at 15 min, 100 μM in series [1] (setting [5]) amounted to 13.5%. Regarding `C[C@@H]1[C@H](O)[C@@H](C)/C=C/C=C/C=C/C=C/C=C/C=C/C=C/[C@H](O[C@@H]2O[C@H](C)[C@@H](O)[C@H](N)[C@@H]2O)C[C@@H]2O[C@](O)(C[C@@H](O)C[C@@H](O)[C@H](O)CC[C@@H](O)C[C@@H](O)CC(=O)O[C@H]1C)C[C@H](O)[C@H]2C(=O)O` [Amphotericin], the inhibition at 15 min, 100 μM in series [1] (setting [5]) turned out to be 6.24%. Consider `c1ccc2[nH]c(-c3cscn3)nc2c1` [Thiabendazole], for which the inhibition at 15 min, 100 μM in series [1] (setting [5]) is -4.31%. Take `CC(=O)C[C@H](c1ccccc1)c1c(O)c2ccccc2oc1=O` [R-Warfarin]: the “% Inhibition of retinoic acid metabolism” value in series [2] turned out to be 3.0%. With `C[C@@H](Cc1ccccc1)N(C)Cc1ccccc1` [Benzphetamine], the “% Inhibition of retinoic acid metabolism” value in series [3] worked out at 46.0%. For `CCC(C)n1ncn(-c2ccc(N3CCN(c4ccc(OCC5COC(Cn6cncn6)(c6ccc(Cl)cc6Cl)O5)cc4)CC3)cc2)c1=O` (stereo not drawn) [Itraconazole], the “% Inhibition of retinoic acid metabolism” value in series [2] was determined as 68.7%. In addition, in series [1] (setting [5]), the IC50 at 15 min came to 17.4 ± 1 µM and the inhibition at 15 min, 100 μM was over 50%.
